# In patent US7462625B2, “Gonadotropin-releasing hormone receptor antagonists and methods relating thereto” (Neurocrine Biosciences, Inc., priority 2000, dated 2008):
# Target: T1, GnRH receptor (Homo sapiens, UniProt P30968)
# T1 construct: expressed in transfected cells
# T1 sequence (P30968 1-328): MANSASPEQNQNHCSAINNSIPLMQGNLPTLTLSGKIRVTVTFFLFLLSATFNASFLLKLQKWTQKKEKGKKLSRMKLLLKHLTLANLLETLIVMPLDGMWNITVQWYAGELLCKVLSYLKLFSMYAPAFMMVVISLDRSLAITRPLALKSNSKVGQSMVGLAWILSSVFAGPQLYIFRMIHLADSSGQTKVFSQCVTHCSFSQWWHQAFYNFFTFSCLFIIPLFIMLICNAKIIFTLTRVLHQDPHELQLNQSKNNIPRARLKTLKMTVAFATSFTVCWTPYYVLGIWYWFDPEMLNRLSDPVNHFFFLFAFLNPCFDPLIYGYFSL
# Test: GnRH receptor membrane binding assay
# Conditions: not given
# Description: Radio-Iodination of GnRH Peptide
# The GnRH analog is labeled by the chloramine-T method. […] The reaction is stopped by the addition of 60 μg sodium metabisulfite and the free iodine is removed by passing the iodinated mixture through a C-8 Sep-Pak cartridge (Millipore Corp., Milford, Mass.). The peptide is eluted with a small volume of 80% acetonitrile/water. […] The purified radioactive peptide is stored in 0.1% BSA/20% acetonitrile/0.1% TFA at −80° C. and can be used for up to 4 weeks.
# GnRH Receptor Membrane Binding Assay
# Cells stably, or transiently, transfected with GnRH receptor expression vectors are harvested, resuspended in 5% sucrose and homogenized using a polytron homogenizer (2×15 sec). Nucleii are removed by centrifugation (3000×g for 5 min.), and the supernatant centrifuged (20,000×g for 30 min, 4° C.) to collect the membrane fraction. The final membrane preparation is resuspended in binding buffer (10 mM Hepes (pH 7.5), 150 mM NaCl, and 0.1% BSA) and stored at −70° C. Binding reactions are performed in a Millipore MultiScreen 96-well filtration plate assembly with polyethylenimine coated GF/C membranes. […] The reaction is terminated after 90 minutes by application of vacuum and washing (2×) with phosphate buffered saline. Bound radioactivity is measured using 96-well scintillation counting (Packard Topcount) or by removing the filters from the plate and direct gamma counting. Ki values are calculated from competition binding data using non-linear least squares regression using the Prism software package (GraphPad Software).
row,Ki [nM],Compound
1,< 100,COc1cccc(-c2c(C)n(Cc3c(F)cccc3F)c(=O)n(CCN(C)CCc3ccccn3)c2=O)c1F [9-24]

# Same assay, conditions: GnRH receptor membrane binding assay, [125I]-labeled GnRH peptide; read-out: Ki
row,Compound,Ki [nM]
1,Cc1ccc(-c2c(C)n(Cc3c(F)cccc3F)c(=O)n(C[C@H](N)c3ccccc3)c2=O)s1 [8-106],< 100
2,Cc1c(-c2cccs2)c(=O)n(C[C@H](N)c2ccccc2)c(=O)n1Cc1c(F)cccc1F [8-107],< 100
3,CCNC(=O)[C@@H]1CCCN1CCn1c(=O)c(-c2cccc(OC)c2)c(C)n(Cc2c(F)cccc2F)c1=O [9-3],< 100
4,COc1cccc(-c2c(C)n(Cc3c(F)cccc3F)c(=O)n(CCN3CCC[C@@H]3CO)c2=O)c1 [9-4],< 100
5,COc1cccc(-c2c(C)n(Cc3c(F)cccc3F)c(=O)n(CCN3CC[C@@H](NC(C)=O)C3)c2=O)c1 [9-7],< 100
6,COc1cccc(-c2c(C)n(Cc3c(F)cccc3F)c(=O)n(CC(C)NCCCOCC(C)C)c2=O)c1 (centres unmarked) [9-19],< 100
7,COc1cccc(-c2c(C)n(Cc3c(F)cccc3F)c(=O)n(CC3CCCN3)c2=O)c1 (centres unmarked) [9-26],< 100
8,Cc1c(-c2ccc(Oc3ccccc3)cc2)c(=O)n(CCNCc2cc(C(F)(F)F)cc(C(F)(F)F)c2)c(=O)n1Cc1c(F)cccc1F [9-32],< 100
9,Cc1c(-c2ccc(Oc3ccccc3)cc2)c(=O)n(CCN2CCN(Cc3ccc4c(c3)OCO4)CC2)c(=O)n1Cc1c(F)cccc1F [9-35],< 100
10,Cc1c(-c2ccc(Oc3ccccc3)cc2)c(=O)n(CCN2CCCC(C(N)=O)C2)c(=O)n1Cc1c(F)cccc1F (centres unmarked) [9-37],< 100
11,Cc1c(-c2ccc(Oc3ccccc3)cc2)c(=O)n(CCN(Cc2ccccc2)Cc2ccccc2)c(=O)n1Cc1c(F)cccc1F [9-39],< 100
12,Cc1c(-c2ccc(Oc3ccccc3)cc2)c(=O)n(CCN2CCN(c3cccc(Cl)c3)CC2)c(=O)n1Cc1c(F)cccc1F [9-40],< 100
13,Cc1c(-c2ccc(Oc3ccccc3)cc2)c(=O)n(CCN2CC[C@@H](NC(=O)C(F)(F)F)C2)c(=O)n1Cc1c(F)cccc1F [9-42],< 100
14,Cc1c(-c2ccccc2F)c(=O)n(CCN2CCN(c3cccc(Cl)c3)CC2)c(=O)n1Cc1c(F)cccc1F [9-56],< 100
15,Cc1c(-c2ccccc2F)c(=O)n(CCN2CCN(C(=O)OCc3ccccc3)CC2)c(=O)n1Cc1c(F)cccc1F [9-58],< 100
16,Cc1c(-c2ccc3c(c2)OCO3)c(=O)n(CCNCc2cc(C(F)(F)F)cc(C(F)(F)F)c2)c(=O)n1Cc1c(F)cccc1F [9-63],< 100
17,Cc1c(-c2ccc3c(c2)OCO3)c(=O)n(CCNCCN(C(C)C)C(C)C)c(=O)n1Cc1c(F)cccc1F [9-64],< 100
18,Cc1c(-c2ccc3c(c2)OCO3)c(=O)n(CCN2CCN(c3cccc(Cl)c3)CC2)c(=O)n1Cc1c(F)cccc1F [9-70],< 100
19,Cc1c(-c2ccc(C(C)C)cc2)c(=O)n(CCN2CCN(c3cccc(Cl)c3)CC2)c(=O)n1Cc1c(F)cccc1F [9-85],< 100

row,Compound,Ki [nM]
1,CCCN(CCn1c(=O)c(-c2ccc(C(C)C)cc2)c(C)n(Cc2c(F)cccc2F)c1=O)C(C)CC (centres unmarked) [9-86],< 100
2,Cc1c(-c2ccc3c(c2)OCCO3)c(=O)n(CCN2CCN(Cc3ccc4c(c3)OCO4)CC2)c(=O)n1Cc1c(F)cccc1F [9-95],< 100
3,Cc1c(-c2ccc3c(c2)OCCO3)c(=O)n(CCN2CC(C)OC(C)C2)c(=O)n1Cc1c(F)cccc1F (centres unmarked) [9-96],< 100
4,COc1cccc(-c2c(C)n(Cc3c(F)cccc3F)c(=O)n(CC(C)NCc3ccccn3)c2=O)c1 (centres unmarked) [9-109],< 100
5,CCC(C)NC(=O)[C@@H]1CCCN1CCn1c(=O)c(-c2cccc(OC)c2)c(C)n(Cc2c(F)cccc2F)c1=O (some centres unmarked) [9-112],< 100
6,Cc1c(-c2ccc(Oc3ccccc3)cc2)c(=O)n(CCNCC(F)(F)F)c(=O)n1Cc1c(F)cccc1F [9-138],< 100
7,Cc1c(-c2ccc(Oc3ccccc3)cc2)c(=O)n(CCNCCC(c2ccccc2)c2ccccc2)c(=O)n1Cc1c(F)cccc1F [9-140],< 100
8,Cc1c(-c2ccc(Oc3ccccc3)cc2)c(=O)n(CCNCc2cccc([N+](=O)[O-])c2)c(=O)n1Cc1c(F)cccc1F [9-142],< 100
9,Cc1c(-c2ccc(Oc3ccccc3)cc2)c(=O)n(CCNCc2ccc([N+](=O)[O-])cc2)c(=O)n1Cc1c(F)cccc1F [9-143],< 100
10,Cc1c(-c2ccc(Oc3ccccc3)cc2)c(=O)n(CCNCc2ccc(F)cc2C(F)(F)F)c(=O)n1Cc1c(F)cccc1F [9-145],< 100
11,Cc1c(-c2ccc(Oc3ccccc3)cc2)c(=O)n(CCN2CCN(c3ccccc3)CC2)c(=O)n1Cc1c(F)cccc1F [9-146],< 100
12,Cc1c(-c2ccccc2F)c(=O)n(CCNC2CCC(C)CC2)c(=O)n1Cc1c(F)cccc1F (centres unmarked) [9-149],< 100
13,Cc1c(-c2ccc3c(c2)OCO3)c(=O)n(CCNCC(F)(F)F)c(=O)n1Cc1c(F)cccc1F [9-164],< 100
14,Cc1c(-c2ccc3c(c2)OCCO3)c(=O)n(CCNCC(F)(F)F)c(=O)n1Cc1c(F)cccc1F [9-191],< 100
15,Cc1c(-c2ccc3c(c2)OCCO3)c(=O)n(CCN2CCN(c3ccccc3)CC2)c(=O)n1Cc1c(F)cccc1F [9-199],< 100
16,Cc1c(-c2ccc3c(c2)OCCO3)c(=O)n(CCN(CCC#N)Cc2cccnc2)c(=O)n1Cc1c(F)cccc1F [9-200],< 100
17,COc1ccccc1CCNCCn1c(=O)c(-c2ccc(Oc3ccccc3)cc2)c(C)n(Cc2c(F)cccc2F)c1=O [9-215],< 100
18,Cc1c(-c2ccc(Oc3ccccc3)cc2)c(=O)n(CCN[C@@H](C)c2ccc3ccccc3c2)c(=O)n1Cc1c(F)cccc1F [9-219],< 100

# Results, then the compound that gave them:
row,Ki [nM],Compound
1,< 100,CCN(CC)CCn1c(=O)c(-c2ccc(Oc3ccccc3)cc2)c(C)n(Cc2c(F)cccc2F)c1=O [9-224]
2,< 100,Cc1ccc(N2CCN(CCn3c(=O)c(-c4ccc(Oc5ccccc5)cc4)c(C)n(Cc4c(F)cccc4F)c3=O)CC2)cc1 [9-225]
3,< 100,Cc1c(-c2ccccc2F)c(=O)n(CCNCCN(C)C)c(=O)n1Cc1c(F)cccc1F [9-227]
4,< 100,COc1ccc(CCNCCn2c(=O)c(-c3ccccc3F)c(C)n(Cc3c(F)cccc3F)c2=O)cc1OC [9-229]
5,< 100,Cc1c(-c2ccccc2F)c(=O)n(CCN(C)C)c(=O)n1Cc1c(F)cccc1F [9-237]
6,< 100,CCCN1CCN(CCn2c(=O)c(-c3ccccc3F)c(C)n(Cc3c(F)cccc3F)c2=O)CC1 [9-240]
7,< 100,Cc1c(-c2ccc3c(c2)OCO3)c(=O)n(CCNCCN(C)C)c(=O)n1Cc1c(F)cccc1F [9-242]
8,< 100,COc1ccc(CCNCCn2c(=O)c(-c3ccc4c(c3)OCO4)c(C)n(Cc3c(F)cccc3F)c2=O)cc1OC [9-244]
9,< 100,Cc1c(-c2ccc3c(c2)OCO3)c(=O)n(CCNCC2CC2)c(=O)n1Cc1c(F)cccc1F [9-245]
10,< 100,Cc1c(-c2ccc3c(c2)OCO3)c(=O)n(CCN[C@@H](C)c2ccc3ccccc3c2)c(=O)n1Cc1c(F)cccc1F [9-247]
11,< 100,CCN(CC)CCN(C)CCn1c(=O)c(-c2ccc3c(c2)OCO3)c(C)n(Cc2c(F)cccc2F)c1=O [9-249]
12,< 100,CCN(CC)CCN(C)CCn1c(=O)c(-c2ccc(C(C)C)cc2)c(C)n(Cc2c(F)cccc2F)c1=O [9-263]
13,< 100,Cc1c(-c2ccc3c(c2)OCCO3)c(=O)n(CCNCCN(C)C)c(=O)n1Cc1c(F)cccc1F [9-270]
14,< 100,Cc1c(-c2ccc3c(c2)OCCO3)c(=O)n(CCN[C@@H](C)c2ccc3ccccc3c2)c(=O)n1Cc1c(F)cccc1F [9-275]
15,< 100,Cc1ccc(N2CCN(CCn3c(=O)c(-c4ccc5c(c4)OCCO5)c(C)n(Cc4c(F)cccc4F)c3=O)CC2)cc1 [9-281]
16,< 100,Cc1c(/C=C/c2ccccc2)c(=O)n(CCN(C)CCc2ccccn2)c(=O)n1Cc1c(F)cccc1F [9-287]
17,< 100,COc1cccc(-c2c(C)n(Cc3c(F)cccc3F)c(=O)n(C[C@H](C)NCc3ccccc3)c2=O)c1F [9-304]
18,< 100,COc1cccc(-c2c(C)n(Cc3c(F)cccc3F)c(=O)n(C[C@H](C)N(C)Cc3ccccc3)c2=O)c1F [9-305]
19,< 100,COc1cccc(-c2c(C)n(Cc3c(F)cccc3F)c(=O)n([C@H](C)CNCc3ccccc3)c2=O)c1 [9-312]
20,< 100,COc1cccc(-c2c(C)n(Cc3c(F)cccc3F)c(=O)n(C[C@@H](C)N(C)CCc3ccccn3)c2=O)c1 [9-318]
21,< 100,Cc1c(-c2ccc3c(c2)OCO3)c(=O)n(CCNC2CCC(C)CC2)c(=O)n1Cc1c(F)cccc1F (centres unmarked) [9-320]
22,< 100,Cc1c(-c2ccc3c(c2)OCO3)c(=O)n(CCN2CCN(c3cccc(C(F)(F)F)c3)CC2)c(=O)n1Cc1c(F)cccc1F [9-361]
23,< 100,CCOC(=O)N1CCN(CCn2c(=O)c(-c3ccc4c(c3)OCO4)c(C)n(Cc3c(F)cccc3F)c2=O)CC1 [9-362]
24,< 100,COc1cccc(-c2c(C)n(Cc3c(F)cccc3F)c(=O)n(CC(C)NC(C)C(C)C)c2=O)c1F (centres unmarked) [9-399]
